Data published in US20130029928A1 (priority 2010, published 2013).
Like-named read-outs stand apart in the source and are kept apart here.

Assay: Phase I study CXR1002-001: plasma pharmacokinetics (LC-MS/MS)
Assay type: in vivo, human
Conditions: human, plasma, oral; for concentration at 843 h / concentration at 844 h / concentration at 864 h / concentration at 3 h / concentration at 4 h / concentration at 24 h / concentration at 168 h / concentration at 170 h / concentration at 171 h / concentration at 192 h / concentration at 336 h / concentration at 338 h / concentration at 339 h / concentration at 340 h / concentration at 360 h / concentration at 504 h / concentration at 506 h / concentration at 507 h / concentration at 508 h / concentration at 528 h / concentration at 672 h / concentration at 674 h / concentration at 675 h / concentration at 676 h / concentration at 696 h / concentration at 840 h / concentration at 842 h / concentration at 2 h / concentration at 172 h: read-out: Concentration; for concentration at 864 h: 864 hr (Day 37); for concentration at 24 h: 24 hr (Day 2); for concentration at 168 h: 168 hr (Day 8); for concentration at 336 h: 336 hr (Day 15); for concentration at 504 h: 504 hr (Day 22); for concentration at 528 h: 528 hr (Day 23); for concentration at 672 h: 672 hr (Day 29); for concentration at 840 h: 840 hr (Day 36)
From the text: PK samples, PD (fasting) samples, blood glucose, and blood triglyceride samples, were taken over a 6-week period.
Dose limiting toxicity (DLT) will be based on the toxicity assessments over the first 3-week period of the repeat dosing schedule. PK samples (single blood sample) were taken on the following basis: • Every 6 weeks during the repeat dosing phase • If dosing is interrupted or stopped, samples will be taken at intervals according to patient convenience • PK sampling for safety evaluation may take place at any time, as clinically indicated
Plasma samples were collected after the single 50 mg dose at the following timepoints: Pre-dose, and then 0.25, 0.5, 0.75, 1, 1.5, 2, 3, 4, 6, 24, 48, and 72 hours after administration and then once weekly at weeks 2, 3, 4, 5, and 6 (days 8, 15, 22, 29, and 36). For patients treated with the weekly repeat dose, plasma samples were collected at the following timepoints: Pre-dose and then 2, 3, 4 and 24 hours after administration for a total of 6 weeks. Thereafter a single sample was collected every 6 weeks for monitoring of exposure during long term treatment. Plasma samples were processed at site and stored at −80° C. prior to batch shipment to the analytical laboratory.

[1] = 300 mg, Patient 014 Dose 300 mg
[2] = 450 mg, Patient 015 Dose 450 mg
[3] = 450 mg, Patient 016 Dose 450 mg
[4] = 450 mg, Patient 017 Dose 450 mg
[5] = 600 mg, Patient 018, 600 mg, person
[6] = 600 mg, Patient 020, 600 mg, person
[7] = 600 mg, Patient 021, 600 mg, person

O=C(O)C(F)(F)C(F)(F)C(F)(F)C(F)(F)C(F)(F)C(F)(F)C(F)(F)F [CXR1002]
concentration at 843 h [1]: 520 µM
concentration at 844 h [1]: 563 µM
concentration at 864 h [1]: 488 µM
concentration at 12 week (300 mg, Patient 014 Dose 300 mg, Week 12): 890 µM
concentration at 18 week (300 mg, Patient 014 Dose 300 mg, Week 18): 980 µM
concentration at 3 h [2]: 231 µM
concentration at 4 h [2]: 217 µM
concentration at 24 h [2]: 126 µM
concentration at 168 h [2]: 138 µM
concentration at 170 h [2]: 325 µM
concentration at 171 h [2]: 314 µM
concentration at 192 h (450 mg, Patient 015 Dose 450 mg, 192 hr (Day 9)): 294 µM
concentration at 336 h [2]: 286 µM
concentration at 338 h [2]: 463 µM
concentration at 339 h [2]: 393 µM
concentration at 340 h [2]: 424 µM
concentration at 360 h (450 mg, Patient 015 Dose 450 mg, 360 hr (Day 16)): 412 µM
concentration at 504 h [2]: 387 µM
concentration at 506 h [2]: 579 µM
concentration at 507 h [2]: 548 µM
concentration at 508 h [2]: 513 µM
concentration at 528 h [2]: 551 µM
concentration at 672 h [2]: 544 µM
concentration at 674 h [2]: 622 µM
concentration at 675 h [2]: 633 µM
concentration at 676 h [2]: 675 µM
concentration at 696 h (450 mg, Patient 015 Dose 450 mg, 696 hr (Day 30)): 708 µM
concentration at 840 h [2]: 575 µM
concentration at 842 h [2]: 703 µM
concentration at 843 h [2]: 655 µM
concentration at 844 h [2]: 801 µM
concentration at 864 h [2]: 592 µM
concentration at 2 h [3]: 108 µM
concentration at 3 h [3]: 126 µM
concentration at 4 h [3]: 88.1 µM
concentration at 24 h [3]: 164 µM
concentration at 170 h [3]: 328 µM
concentration at 171 h [3]: 255 µM
concentration at 172 h [3]: 244 µM
concentration at 192 h (450 mg, Patient 016 Dose 450 mg, 192 hr (Day 9)): 348 µM
concentration at 336 h [3]: 287 µM
concentration at 338 h [3]: 418 µM
concentration at 339 h [3]: 454 µM
concentration at 340 h [3]: 442 µM
concentration at 360 h (450 mg, Patient 016 Dose 450 mg, 360 hr (Day 16)): 471 µM
concentration at 504 h [3]: 546 µM
concentration at 506 h [3]: 693 µM
concentration at 507 h [3]: 721 µM
concentration at 508 h [3]: 698 µM
concentration at 528 h [3]: 692 µM
concentration at 672 h [3]: 605 µM
concentration at 674 h [3]: 907 µM
concentration at 675 h [3]: 745 µM
concentration at 676 h [3]: 732 µM
concentration at 696 h (450 mg, Patient 016 Dose 450 mg, 696 hr (Day 30)): 871 µM
concentration at 2 h [4]: 99.7 µM
concentration at 3 h [4]: 136 µM
concentration at 4 h [4]: 163 µM
concentration at 336 h [4]: 216 µM
concentration at 338 h [4]: 325 µM
concentration at 339 h [4]: 342 µM
concentration at 360 h (450 mg, Patient 017 Dose 450 mg, 360 hr): 258 µM
concentration at 672 h [4]: 404 µM
concentration at 674 h [4]: 451 µM
concentration at 675 h [4]: 497 µM
concentration at 676 h [4]: 485 µM
concentration at 696 h (450 mg, Patient 017 Dose 450 mg, 696 hr): 483 µM
concentration at 2 h [5]: 339 µM
concentration at 3 h [5]: 280 µM
concentration at 4 h [5]: 248 µM
concentration at 24 h [5]: 213 µM
concentration at 168 h [5]: 181 µM
concentration at 170 h [5]: 398 µM
concentration at 171 h [5]: 407 µM
concentration at 192 h (600 mg, Patient 018, 600 mg, person, 192 hr (day 9)): 386 µM
concentration at 336 h [5]: 356 µM
concentration at 338 h [5]: 551 µM
concentration at 339 h [5]: 563 µM
concentration at 340 h [5]: 591 µM
concentration at 360 h (600 mg, Patient 018, 600 mg, person, 360 hr (Day 16)): 554 µM
concentration at 2 h [6]: 208 µM
concentration at 4 h [6]: 180 µM
concentration at 24 h [6]: 413 µM
concentration at 168 h [6]: 125 µM
concentration at 170 h [6]: 327 µM
concentration at 171 h [6]: 310 µM
concentration at 172 h [6]: 279 µM
concentration at 192 h (600 mg, Patient 020, 600 mg, person, 192 hr (day 9)): 268 µM
concentration at 336 h [6]: 272 µM
concentration at 338 h [6]: 474 µM
concentration at 339 h [6]: 434 µM
concentration at 340 h [6]: 438 µM
concentration at 360 h (600 mg, Patient 020, 600 mg, person, 360 hr (Day 16)): 410 µM
concentration at 504 h [6]: 441 µM
concentration at 506 h [6]: 477 µM
concentration at 507 h [6]: 526 µM
concentration at 508 h [6]: 536 µM
concentration at 528 h [6]: 563 µM
concentration at 672 h [6]: 540 µM
concentration at 674 h [6]: 547 µM
concentration at 675 h [6]: 603 µM
concentration at 676 h [6]: 652 µM
concentration at 696 h (600 mg, Patient 020, 600 mg, person, 696 hr (Day 30)): 615 µM
concentration at 840 h [6]: 582 µM
concentration at 842 h [6]: 700 µM
concentration at 843 h [6]: 764 µM
concentration at 844 h [6]: 770 µM
concentration at 864 h [6]: 703 µM
concentration at 2 h [7]: 77.2 µM
concentration at 3 h [7]: 121 µM
concentration at 24 h [7]: 203 µM
concentration at 168 h [7]: 218 µM
concentration at 170 h [7]: 504 µM
concentration at 171 h [7]: 417 µM
concentration at 172 h [7]: 451 µM
